Results reported in ChEMBL document CHEMBL2346514, “Efficient synthesis and antimicrobial activity of some novel S-β-d-glucosides of 5-aryl-1,2,4-triazole-3-thiones derivatives” (2013).
Values after ≈ are worked out from the molar mass of the structure shown. Active and inactive are the calls of the source. The calls are words filed in the database; no cut-off is given here.

Experiments:
Type in all cases: functional
[1] = Antifungal activity against Monilia albican ATCC 10231 after 24 to 72 hrs by NCCLS method
[2] = system: Staphylococcus aureus; experiment: Antibacterial activity against Staphylococcus aureus ATCC 6538 after 24 hrs by NCCLS method
[3] = system: Escherichia coli; experiment: Antibacterial activity against Escherichia coli ATCC 8099 after 24 hrs by NCCLS method

Row | Compound | MFC [1] [µg/mL] | MIC [1] [µg/mL] | MBC ([2]; ATCC 6538, 24 h) [µg/mL] | MIC ([2]; ATCC 6538, 24 h) [µg/mL] | MBC ([3]; ATCC 8099, 24 h) [µg/mL] | MIC ([3]; ATCC 8099, 24 h) [µg/mL] | MBC [3] | MIC [3] | MBC [2] [µg/mL] | MIC [2] [µg/mL]
1 | CC(=O)OC[C@H]1O[C@@H](Sc2nnc(-c3ccccc3O)n2/N=C/c2cc(Br)cc(Br)c2O)[C@H](OC(C)=O)[C@@H](OC(C)=O)[C@@H]1OC(C)=O | 32 (≈ 40 µM) | 16 (≈ 20 µM) | 32 (≈ 40 µM) | 32 (≈ 40 µM) | 16 (≈ 20 µM) | 16 (≈ 20 µM) | – | – | – | –
2 | Oc1cc(Cl)ccc1Oc1ccc(Cl)cc1Cl [TRICLOSAN] | 64 (≈ 221 µM) | 32 (≈ 111 µM) | 4 (≈ 13.8 µM) | 4 (≈ 13.8 µM) | 4 (≈ 13.8 µM) | 2 (≈ 6.91 µM) | – | – | – | –
3 | CC(=O)OC[C@H]1O[C@@H](Sc2nnc(-c3ccccc3)n2/N=C/c2ccccc2O)[C@H](OC(C)=O)[C@@H](OC(C)=O)[C@@H]1OC(C)=O | 64 (≈ 102 µM) | 32 (≈ 51.1 µM) | 128 (≈ 204 µM) | 64 (≈ 102 µM) | – | – | inactive | inactive | – | –
4 | OC(Cn1cncn1)(Cn1cncn1)c1ccc(F)cc1F [FLUCONAZOLE] | 4 (≈ 13.1 µM) | 2 (≈ 6.53 µM) | 32 (≈ 104 µM) | 16 (≈ 52.2 µM) | 128 (≈ 418 µM) | 128 (≈ 418 µM) | – | – | – | –
5 | CC(=O)OC[C@H]1O[C@@H](Sc2nnc(-c3ccccc3O)n2/N=C/c2cc(Cl)ccc2O)[C@H](OC(C)=O)[C@@H](OC(C)=O)[C@@H]1OC(C)=O | 32 (≈ 47.3 µM) | 16 (≈ 23.6 µM) | 128 (≈ 189 µM) | 128 (≈ 189 µM) | 256 (≈ 378 µM) | 128 (≈ 189 µM) | – | – | – | –
6 | CC(=O)OC[C@H]1O[C@@H](Sc2nnc(-c3ccccc3)n2/N=C/c2cc(Cl)ccc2O)[C@H](OC(C)=O)[C@@H](OC(C)=O)[C@@H]1OC(C)=O | 32 (≈ 48.4 µM) | 16 (≈ 24.2 µM) | 128 (≈ 194 µM) | 64 (≈ 96.8 µM) | 128 (≈ 194 µM) | 128 (≈ 194 µM) | – | – | – | –
7 | CC(=O)OC[C@H]1O[C@@H](Sc2nnc(-c3ccccc3)n2/N=C/c2cc(Br)cc(Br)c2O)[C@H](OC(C)=O)[C@@H](OC(C)=O)[C@@H]1OC(C)=O | 16 (≈ 20.4 µM) | 16 (≈ 20.4 µM) | 32 (≈ 40.8 µM) | 16 (≈ 20.4 µM) | 16 (≈ 20.4 µM) | 16 (≈ 20.4 µM) | – | – | – | –
8 | GENTAMICIN | 4 | 4 | – | – | – | – | 4 µg/mL | 2 µg/mL | 2 | 2
9 | CC(=O)OC[C@H]1O[C@@H](Sc2nnc(-c3ccccc3)n2/N=C/c2ccccc2)[C@H](OC(C)=O)[C@@H](OC(C)=O)[C@@H]1OC(C)=O | 64 (≈ 105 µM) | 32 (≈ 52.4 µM) | 64 (≈ 105 µM) | 64 (≈ 105 µM) | 128 (≈ 210 µM) | 128 (≈ 210 µM) | – | – | – | –
10 | CC(=O)OC[C@H]1O[C@@H](Sc2nnc(-c3ccccc3)n2/N=C/c2ccccc2Cl)[C@H](OC(C)=O)[C@@H](OC(C)=O)[C@@H]1OC(C)=O | 64 (≈ 99.2 µM) | 64 (≈ 99.2 µM) | 128 (≈ 198 µM) | 128 (≈ 198 µM) | 128 (≈ 198 µM) | 128 (≈ 198 µM) | – | – | – | –
11 | CC(=O)OC[C@H]1O[C@@H](Sc2nnc(-c3ccccc3)n2/N=C/c2cc(Br)ccc2O)[C@H](OC(C)=O)[C@@H](OC(C)=O)[C@@H]1OC(C)=O | 16 (≈ 22.7 µM) | 16 (≈ 22.7 µM) | 32 (≈ 45.4 µM) | 32 (≈ 45.4 µM) | 128 (≈ 181 µM) | 128 (≈ 181 µM) | – | – | – | –
12 | CC(=O)OC[C@H]1O[C@@H](Sc2nnc(-c3ccccc3O)n2/N=C/c2ccccc2)[C@H](OC(C)=O)[C@@H](OC(C)=O)[C@@H]1OC(C)=O | 32 (≈ 51.1 µM) | 32 (≈ 51.1 µM) | 256 (≈ 409 µM) | 128 (≈ 204 µM) | 256 (≈ 409 µM) | 128 (≈ 204 µM) | – | – | – | –
13 | CC(=O)OC[C@H]1O[C@@H](Sc2nnc(-c3ccccc3O)n2/N=C/c2cc(Br)ccc2O)[C@H](OC(C)=O)[C@@H](OC(C)=O)[C@@H]1OC(C)=O | 16 (≈ 22.2 µM) | 16 (≈ 22.2 µM) | 128 (≈ 177 µM) | 64 (≈ 88.7 µM) | 128 (≈ 177 µM) | 128 (≈ 177 µM) | – | – | – | –
14 | CC(=O)OC[C@H]1O[C@@H](Sc2nnc(-c3ccccc3O)n2/N=C/c2ccccc2Cl)[C@H](OC(C)=O)[C@@H](OC(C)=O)[C@@H]1OC(C)=O | 64 (≈ 96.8 µM) | 32 (≈ 48.4 µM) | 128 (≈ 194 µM) | 128 (≈ 194 µM) | 128 (≈ 194 µM) | 128 (≈ 194 µM) | – | – | – | –
15 | CC(=O)OC[C@H]1O[C@@H](Sc2nnc(-c3ccccc3O)n2/N=C/c2ccccc2O)[C@H](OC(C)=O)[C@@H](OC(C)=O)[C@@H]1OC(C)=O | 64 (≈ 99.6 µM) | 64 (≈ 99.6 µM) | 128 (≈ 199 µM) | 128 (≈ 199 µM) | 64 (≈ 99.6 µM) | 64 (≈ 99.6 µM) | – | – | – | –
